The data set in a line: Solubility of selected FT4 and FT5 compounds in organic solvents (10 mg compound, stepwise 5 mL solvent additions, ultrasonic bath). The format is physicochemical. The conditions noted are these: thermodynamic from solid. Here is the method:
Solubility of Selected FT4 And FT5 Compounds Table 1 provides a solubility comparison of some α-, α′-unsubstituted, β-, β′-alkyl substituted FT4 (and FT5), with some α-, α′-substituted, β-, β′-alkyl substituted FT4 (and FT5) compounds. General Procedure: 10 mg of a FT4 or FT5 compound was mixed with 5.0 mL of a specified solvent and then sealed in a screw-top glass vial. The resulting mixture was kept in an ultrasonic bath for 30 minutes at ambient temperature and then kept quiescent for 30 minutes to check whether a clear solution formed. If the mixture was still not clear after these 60 minutes, an additional 5.0 mL of the same solvent was added to the vial and the 60 minute mixing and standing procedure was repeated up to a total of 20 mL of solvent.

Where [1] appears, read: CH2Cl2, organic solvent or mixture, 10 mg compound in 5 mL CH2Cl2, ambient temperature, read-out: Solubility CH2Cl2.
Setting [2] is: CH2Cl2, organic solvent or mixture, 10 mg compound in 10 mL CH2Cl2, ambient temperature, read-out: Solubility CH2Cl2.
The mark [3] stands for this setting: CH2Cl2, organic solvent or mixture, 10 mg compound in 15 mL CH2Cl2, ambient temperature, read-out: Solubility CH2Cl2.
[4] abbreviates: CH2Cl2, organic solvent or mixture, 10 mg compound in 20 mL CH2Cl2, ambient temperature, read-out: Solubility CH2Cl2.
[5] abbreviates: hexane, organic solvent or mixture, 10 mg compound in 5 mL hexane, ambient temperature, read-out: Solubility hexane.
The mark [6] stands for this setting: hexane, organic solvent or mixture, 10 mg compound in 10 mL hexane, ambient temperature, read-out: Solubility hexane.
[7] abbreviates: hexane, organic solvent or mixture, 10 mg compound in 15 mL hexane, ambient temperature, read-out: Solubility hexane.
Setting [8] is: hexane, organic solvent or mixture, 10 mg compound in 20 mL hexane, ambient temperature, read-out: Solubility hexane.
The mark [9] stands for this setting: toluene, organic solvent or mixture, 10 mg compound in 5 mL toluene, ambient temperature, read-out: Solubility toluene.
The mark [10] stands for this setting: toluene, organic solvent or mixture, 10 mg compound in 10 mL toluene, ambient temperature, read-out: Solubility toluene.
Setting [11] is: toluene, organic solvent or mixture, 10 mg compound in 15 mL toluene, ambient temperature, read-out: Solubility toluene.
The mark [12] stands for this setting: toluene, organic solvent or mixture, 10 mg compound in 20 mL toluene, ambient temperature, read-out: Solubility toluene.

Like-named read-outs stand apart in the source and are kept apart here.

Our source for the solubility values is patent publication US7919634B2, “Fused thiophenes, articles, and methods thereof” (Corning Incorporated, priority 2009, dated 2011).

Consider `CCCCCCCCCCCCCCCCCc1csc2c1sc1c3scc(CCCCCCCCCCCCCCCCC)c3sc21`, for which the solubility at 60 min is, setting by setting: under setting [1], < 2000 µg/mL; under setting [2], < 2000 µg/mL; under setting [3], < 2000 µg/mL; under setting [4], < 2000 µg/mL; under setting [5], < 2000 µg/mL; under setting [6], < 2000 µg/mL. In addition, the solubility at 60 min by setting is: under setting [7], < 2000 µg/mL; under setting [8], < 2000 µg/mL; under setting [9], < 2000 µg/mL; under setting [10], < 2000 µg/mL; under setting [11], < 2000 µg/mL; under setting [12], < 2000 µg/mL.

Take `CCCCCCCCCCCCCc1c(-c2ccccc2)sc2c1sc1c2sc2c3sc(-c4ccccc4)c(CCCCCCCCCCCCC)c3sc21`: the solubility at 60 min was > 500 µg/mL under setting [1], > 500 µg/mL under setting [5] and > 500 µg/mL under setting [9].

`CCCCCCCCCCCCCc1c(-c2cccs2)sc2c1sc1c2sc2c3sc(-c4cccs4)c(CCCCCCCCCCCCC)c3sc21`: the solubility at 60 min by setting is: under setting [1], > 500 µg/mL; under setting [5], < 2000 µg/mL; under setting [6], < 2000 µg/mL; under setting [7], < 2000 µg/mL; under setting [8], < 2000 µg/mL; under setting [9], > 500 µg/mL.

Take `CCCCCCCCCCCCCc1csc2c1sc1c2sc2c3scc(CCCCCCCCCCCCC)c3sc21`: the solubility at 60 min was < 2000 µg/mL under setting [1]; > 500 µg/mL under setting [2]; < 2000 µg/mL under setting [5]; > 500 µg/mL under setting [6]; > 500 µg/mL under setting [9].

As to `CCCCCCCCCCCCCCCCCc1c(-c2cccs2)sc2c1sc1c3sc(-c4cccs4)c(CCCCCCCCCCCCCCCCC)c3sc21`, the solubility at 60 min is, setting by setting: under setting [1], < 2000 µg/mL; under setting [2], < 2000 µg/mL; under setting [3], < 2000 µg/mL; under setting [4], > 500 µg/mL; under setting [5], < 2000 µg/mL; under setting [6], < 2000 µg/mL. Moreover, the solubility at 60 min reads like this: under setting [7], < 2000 µg/mL; under setting [8], < 2000 µg/mL; under setting [9], < 2000 µg/mL; under setting [10], < 2000 µg/mL; under setting [11], > 500 µg/mL; under setting [12], > 500 µg/mL.

With `CCCCCCCCCCCCCCCCCc1c(-c2ccccc2)sc2c1sc1c3sc(-c4ccccc4)c(CCCCCCCCCCCCCCCCC)c3sc21`, the solubility at 60 min was < 2000 µg/mL under setting [1]; < 2000 µg/mL under setting [2]; > 500 µg/mL under setting [3]; < 2000 µg/mL under setting [5]; < 2000 µg/mL under setting [6]; < 2000 µg/mL under setting [7]. Moreover, the solubility at 60 min was < 2000 µg/mL under setting [8], > 500 µg/mL under setting [9] and > 500 µg/mL under setting [10].

On to `CCCCCCCCCCCCCc1c(-c2cccs2)sc2c1sc1c3sc(-c4cccs4)c(CCCCCCCCCCCCC)c3sc21`, for which the solubility at 60 min under setting [1] is > 500 µg/mL; the solubility at 60 min under setting [5] is < 2000 µg/mL; the solubility at 60 min under setting [6] is < 2000 µg/mL; the solubility at 60 min under setting [7] is < 2000 µg/mL; the solubility at 60 min under setting [8] is < 2000 µg/mL; the solubility at 60 min under setting [9] was > 500 µg/mL.

Consider `CCCCCCCCCCCCCc1csc2c1sc1c3scc(CCCCCCCCCCCCC)c3sc21`, for which the solubility at 60 min is, setting by setting: under setting [1], < 2000 µg/mL; under setting [2], > 500 µg/mL; under setting [5], < 2000 µg/mL; under setting [6], < 2000 µg/mL; under setting [7], < 2000 µg/mL; under setting [8], < 2000 µg/mL. Moreover, the solubility at 60 min by setting is: under setting [9], < 2000 µg/mL; under setting [10], > 500 µg/mL.

For the compound `CCCCCCCCCCCCCc1c(-c2ccccc2)sc2c1sc1c3sc(-c4ccccc4)c(CCCCCCCCCCCCC)c3sc21`, the solubility at 60 min was < 2000 µg/mL under setting [1]; > 500 µg/mL under setting [2]; < 2000 µg/mL under setting [5]; < 2000 µg/mL under setting [6]; < 2000 µg/mL under setting [7]; > 500 µg/mL under setting [8]. Besides, the solubility at 60 min under setting [9] was > 500 µg/mL.

Usually solubility stands for the dissolved amount per volume that the medium holds.
